Laboratory results: patent publication US20080317780A1, “VIRAL VACCINE AND METHOD FOR PREPARATION THEREOF” (NATIONAL RESEARCH COUNCIL OF CANADA, priority 2006, published 2008)

System: zinc finger protein metallothionein (MT)
Experiment: Zinc-finger disruption assay (zinc release from metallothionein, PAR absorbance at 500 nm)
Assay type: biochemical
Procedure: Biochem. Biophys. 287:175-179, 1991; and Fliss, H.; Ménard, M., “Oxidant-induced mobilization of zinc from metallothionein” Arch. Biochem. Biophys. 293:195-199, 1991. Briefly, the assay is conducted as follows. The assay is performed in a cuvet containing the zinc finger protein metallothionein (MT), and the metallochromic indicator 4-(2-pyridylazo)resorcinol (PAR).

Compound: OCl [hypochlorous acid]
- release of zinc in the zinc-finger assay (PAR absorbance) (100 μmol/L): rapid

Compound: NCl [monochloramine]
- zinc-finger disruption (PAR absorbance) (25 μmol/L): increase in PAR absorbance

Compound: N[C@@H](Cc1ccccc1)C(=O)O [phenylalanine]
- release of zinc in the zinc-finger assay (PAR absorbance) (500 μmol/L): negligible
